Results on 14 compounds are retold here after PubChem BioAssay (NCI).

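Values below derive from 48-hour exposures of cells grown in 96-well plates, with endpoints linearly interpolated between the two concentrations bracketing the appropriate inhibition level. GI50 = concentration required for 50% inhibition of growth. Definition used: TGI = concentration required for complete inhibition of growth.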 Bounds are passed on as bounds.

Among the test systems are COLO 205 colon; HT29 colon; SK-MEL-28 melanoma; UO-31 renal; SNB-19 CNS; OVCAR-8 ovarian; EKVX NSCLC; LOX IMVI melanoma; UACC-62 melanoma; HL-60(TB) leukemia.
Holding throughout (experiment): inhibition of tumour cell growth, NCI panel, 48 h

With `Cc1[nH]nc(C(F)(F)F)c1N=NN1CCOCC1`, the TGI was determined as 11.9 µM in the test with COLO 205 colon; 16.8 µM with HT29 colon; 32.7 µM with SK-MEL-28 melanoma; 7.04 µM in the test on UO-31 renal; 30.4 µM in the test on SNB-19 CNS; 13.7 µM in the test on OVCAR-8 ovarian. Besides, the TGI came to 21.3 µM in the test with EKVX NSCLC, 18.3 µM in the test with LOX IMVI melanoma, 23.5 µM in the test on UACC-62 melanoma and 6.18 µM in the test on HL-60(TB) leukemia.
In the case of `COc1ccc2cc(/C=N/NC(=O)Nc3ccccc3)ccc2c1`, the TGI with COLO 205 colon, in the test with HT29 colon, with UO-31 renal, in the test with SNB-19 CNS, with OVCAR-8 ovarian and in the test with LOX IMVI melanoma was more than 100 µM in each case. The TGI with UACC-62 melanoma and in the test with HL-60(TB) leukemia was more than 100 µM in each case.
`O=c1cnn(C/C=C/CO)c(=O)[nH]1`: the TGI in the test with COLO 205 colon, in the test with SK-MEL-28 melanoma, with UO-31 renal, in the test on SNB-19 CNS, in the test on OVCAR-8 ovarian and with EKVX NSCLC was more than 100 µM each time. Besides, the TGI was 86 µM in the test with LOX IMVI melanoma and more than 100 µM with HL-60(TB) leukemia.
For `CN(C)CCCN1CCC2(CCC(C(C)(C)C)CC2)CC1`, the TGI in the test on COLO 205 colon worked out at 3.04 µM; with HT29 colon it was 1.7 µM; in the test with SK-MEL-28 melanoma, 3.36 µM; with UO-31 renal, 3.4 µM; in the test on SNB-19 CNS, 11.8 µM; with OVCAR-8 ovarian, 16.5 µM. In addition, the TGI in the test with EKVX NSCLC was 19.4 µM; in the test on LOX IMVI melanoma, 3.22 µM; in the test with UACC-62 melanoma it was 3.33 µM; with HL-60(TB) leukemia, 2.23 µM.
Turning to `CC(OC(C)(C)C)[C@H](NC(=O)OCC(Cl)(Cl)Cl)C(=O)O` (some centres not stated), the TGI in the test with COLO 205 colon, in the test on HT29 colon, in the test with SK-MEL-28 melanoma, with UO-31 renal, in the test with SNB-19 CNS and with OVCAR-8 ovarian was more than 100 µM throughout. For the same compound, the TGI in the test with EKVX NSCLC, in the test with UACC-62 melanoma and in the test on HL-60(TB) leukemia was more than 100 µM each time.
Regarding `CCC(/C=C/C1OC(=O)C=CC1C)=C\C(C)C/C=C/C(C)=C/C(C)C(=O)C(C)C(O)C(C)C/C(C)=C/C(=O)O` (configuration not stated), the GI50 in the test with COLO 205 colon is 7.52 pM; in the test on HT29 colon, 4.95 µM; in the test with SK-MEL-28 melanoma, 0.00451 nM; in the test with UO-31 renal, 3.12e-05 µM; in the test on SNB-19 CNS, 25.3 pM; in the test with OVCAR-8 ovarian, 1.54 pM. The GI50 in the test on EKVX NSCLC is 1.29 µM; in the test on UACC-62 melanoma it was 0.00223 nM; in the test with HL-60(TB) leukemia it was less than 1 pM. For the same compound, the TGI in the test on HT29 colon turned out to be 13 µM; with SNB-19 CNS, 13.2 µM; in the test with OVCAR-8 ovarian, 9.77 µM; in the test on EKVX NSCLC, 11.4 µM; in the test with LOX IMVI melanoma it was 0.00119 µM.
Regarding `S=C(S)NCNC(=S)S.[Zn+2]`, the TGI in the test with COLO 205 colon, in the test with HT29 colon, with SK-MEL-28 melanoma, in the test with UO-31 renal, with SNB-19 CNS and with OVCAR-8 ovarian was more than 100 µM throughout. Besides, the TGI with EKVX NSCLC, with LOX IMVI melanoma, in the test on UACC-62 melanoma and with HL-60(TB) leukemia was more than 100 µM in each case.
For `C[C@H](CCC(=O)O)[C@H]1CC[C@H]2[C@@H]3CC[C@@H]4C[C@H](O)CC[C@]4(C)[C@H]3C[C@H](O)[C@]12C`, the TGI in the test on COLO 205 colon was 61.8 µM; with HT29 colon it was more than 100 µM; in the test on SK-MEL-28 melanoma, more than 100 µM; in the test on UO-31 renal it was more than 100 µM; in the test on SNB-19 CNS, more than 100 µM; in the test on OVCAR-8 ovarian, more than 100 µM. The TGI was more than 100 µM with EKVX NSCLC, more than 100 µM in the test on LOX IMVI melanoma, more than 100 µM with UACC-62 melanoma and 67.1 µM in the test on HL-60(TB) leukemia.
For `CC1(CCOCc2ccccc2)NC(=O)NC1=O` (configuration not stated), the TGI with HT29 colon, in the test on SK-MEL-28 melanoma, with UO-31 renal, in the test on SNB-19 CNS, in the test with OVCAR-8 ovarian and in the test with EKVX NSCLC was more than 100 µM each time. The TGI in the test on LOX IMVI melanoma and in the test with UACC-62 melanoma was more than 100 µM in each case.
For the compound `O=C(Cn1c[n+](CC(=O)c2ccc(-c3ccccc3)cc2)c2ccccc21)Nc1cccc2cccnc12`, the GI50 in the test with SK-MEL-28 melanoma is 1510 nM; in the test with UO-31 renal, 14.2 µM; in the test on EKVX NSCLC, 1.63 µM; with LOX IMVI melanoma, 1.54 µM; in the test on UACC-62 melanoma, 1400 nM. Besides, the TGI with SK-MEL-28 melanoma is 2.83 µM; in the test on UO-31 renal, 33.3 µM; in the test with EKVX NSCLC, 4.13 µM; with LOX IMVI melanoma it was 3.03 µM; in the test with UACC-62 melanoma it was 2.84 µM.
With `NCc1ccccc1-c1c2nc(c(-c3ccccc3CN)c3ccc([nH]3)c(-c3ccccc3CN)c3nc(c(-c4ccccc4CN)c4ccc1[nH]4)C=C3)C=C2`, the TGI was 97.7 µM in the test on COLO 205 colon; more than 100 µM in the test with HT29 colon; 43.4 µM with SK-MEL-28 melanoma; 42.6 µM in the test on UO-31 renal; 43.5 µM in the test on SNB-19 CNS; more than 100 µM in the test with OVCAR-8 ovarian. Moreover, the TGI with EKVX NSCLC is 48.7 µM; in the test on LOX IMVI melanoma, 56.3 µM; in the test with UACC-62 melanoma it was 54.1 µM; with HL-60(TB) leukemia it was 33.3 µM.
As to `Cn1c(=O)c(-c2ccccc2)c(N=[N+]=[N-])c2ccccc21`, the TGI with COLO 205 colon was more than 100 µM; in the test on HT29 colon it was 49.9 µM; with SK-MEL-28 melanoma it was more than 100 µM; with UO-31 renal, more than 100 µM; in the test on SNB-19 CNS, more than 100 µM; with OVCAR-8 ovarian, more than 100 µM. The TGI with UACC-62 melanoma is more than 100 µM.
As to `O=C(O)CCC(NC(=O)c1ccc(Nc2nc3cc(C(F)(F)F)ccc3nc2-c2ccccc2)cc1)C(=O)O` (configuration not stated), the TGI was more than 100 µM in the test with COLO 205 colon; more than 69.8 µM in the test on HT29 colon; more than 100 µM with SK-MEL-28 melanoma; more than 100 µM with UO-31 renal; more than 100 µM in the test with SNB-19 CNS; more than 100 µM in the test on OVCAR-8 ovarian. Also, the TGI in the test on EKVX NSCLC, with LOX IMVI melanoma, in the test on UACC-62 melanoma and in the test with HL-60(TB) leukemia was more than 100 µM throughout.
Consider `Cn1c(=O)c2c(nc(Cc3ccccc3)n2CC(=O)O)n(C)c1=O`, for which the TGI with HT29 colon, in the test with SK-MEL-28 melanoma, in the test on UO-31 renal, in the test with SNB-19 CNS, in the test with OVCAR-8 ovarian and in the test with EKVX NSCLC was more than 100 µM throughout. Further, the TGI in the test on LOX IMVI melanoma and in the test with UACC-62 melanoma was more than 100 µM each time.
